Source: patent US12606533B2, “3-phenylpropylamine derivative” (DAIICHI SANKYO COMPANY, LIMITED, priority 2023, dated 2026)
pIC50: −log10 of the molar value. Counter-ions that a name gives are not always drawn.

Assays:
SF1-LBD = SF1-LBD (Homo sapiens, UniProt Q13285); experiment: Inhibitory activity against binding of DAX1 to SF1-LBD (AlphaLISA); settings: inhibition of binding of DAX1 peptide to His-SF1-LBD, read-out: cell-free SF1 IC50
Description: The binding activity of each compound to the SF-1 ligand binding domain (LBD) was evaluated using the binding inhibitory activity of each compound against binding of DAX1 to SF1-LBD as an index. 100 nM His-SF1-LBD, 2 nM Biotin-DAX1 peptide (Biotin-[…]-NH2) and each compound (8-point i1 dilution series with common ratio 2 from final concentration 2 μM) were mixed in assay buffer [25 mM HEPES (pH 7.5), 100 mM NaCl, 0.1% BSA, 0.01% CHAPS, 1 mM DTT] and reacted at room temperature for 30 min. Anti-6×His AlphaLISA Acceptor beads and Streptavidin-coated AlphaScreen Donor beads were mixed to a final concentrations of 5 μg/ml and 10 μg/ml, respectively, and reacted in the dark at room temperature for 60 min. AlphaLISA signals were detected using a multimode plate reader (EnVision Xcite, PerkinElmer). The binding rate of DAX1 peptide to SF1 was calculated from the luminescence amount (C) of the compound-free group and the luminescence amount (T) of the compound-added group, based on the following formula.
The DAX1 peptide binding rate at each concentration was analyzed using GraphPad Prism6 (GraphPad Software Inc.) to calculate the concentration (IC50 value) of each compound that inhibits 50% of the binding of DAX1 to SF1-LBD.

CYP11A1 = experiment: Changes in SF1 target gene expression for NCI-H295R: CYP11A1 mRNA (qPCR); assay type: cell-based; settings: Homo sapiens, NCI-H295R cells, 24 hr
Description: (§1) NCI-H295R cells were cultured in a 5% CO2 incubator at 37° C. using DMEM/F12 medium (Thermo Fisher Scientific Inc.) containing 2.5% Nu-Serum (registered trademark) Growth Medium Supplement (Corning) and 1% Corning ITS+ Premix Universal Culture Supplement (Corning). The DMSO solution of each compound was serially diluted with DMSO using a D300e Digital Dispenser (TECAN), and the compounds were added to a 96-well plate (FALCON). NCI-H295R cells were seeded at 1×10^4 cells/50 μL/well on the 96-well plate containing the compounds added thereto, and cultured for 24 hr in a 5% CO2 incubator at 37° C. The final DMSO concentration in the medium was adjusted to 0.1% (v/v) in all cases, and the concentration range of the compounds was set to 1000 nM to 0.32 nM with a common ratio […]. After the completion of culture, the medium was discarded, 50 μL/well of chilled D-PBS (Sigma Aldrich) was added to wash the cells, and D-PBS was discarded. After washing, 25 μL/well of Cells-to-CT (registered trademark) Bulk Lysis Reagents (Thermo Fisher Scientific, Inc.) was added to the wells, the mixture was stirred for 5 min with a plate mixer, and 2.5 μL/well of the reaction quenching liquid was added to prepare cell lysate. The cell lysate was dispensed into a 96-well plate (Corning) at 10 μL/well, and 40 μL/well of Cells-to-CT Bulk RT Reagents (Thermo Fisher Scientific, Inc.) was added. A reverse transcription reaction was performed at 37° C. for 50 min using a thermal cycler, and the reverse transcriptase was inactivated by heating at 95° C. for 5 min, and then stored at 10° C. PrimeTime (registered trademark) Gene Expression Master Mix (Integrated DNA Technologies), the target genes CYP11A1, CYP17A1, CYP21A2, or STAR, and the control gene ACTB PrimeTime (registered trademark) qPCR Probe Assays (Integrated DNA Technologies), and Nuclease free water were mixed at a ratio of 20:1:1:10 to prepare a PrimerProbe mix. The prepared PrimerProbe mix was added to a 384-well plate at 8 μL/well, and the cDNA obtained by reverse transcription was added at 2 μL/well. Real-Time PCR was performed under fast cycling conditions (95° C. for 3 min, followed by 40 cycles of 95° C. for 5 seconds and 62° C. for 30 seconds) to measure the fluorescent signal. The obtained data was analyzed using GraphPad Prism9 (GraphPad Software Inc.) to calculate the concentration (IC50 value) that reduces the mRNA expression level by 50%. The IC50 values (unit: nM) for CYP11A1, CYP17A1, CYP21A2, and STAR, of the compounds corresponding to each Example number are shown in Table 94.

CYP17A1 = experiment: Changes in SF1 target gene expression for NCI-H295R: CYP17A1 mRNA (qPCR); assay type: cell-based; settings: Homo sapiens, NCI-H295R cells, 24 hr
Description: as §1

CYP21A2 = experiment: Changes in SF1 target gene expression for NCI-H295R: CYP21A2 mRNA (qPCR); assay type: cell-based; settings: Homo sapiens, NCI-H295R cells, 24 hr
Description: as §1

STAR = experiment: Changes in SF1 target gene expression for NCI-H295R: STAR mRNA (qPCR); assay type: cell-based; settings: Homo sapiens, NCI-H295R cells, 24 hr
Description: as §1

Chain of SF1-LBD (Q13285 222-459 limits assumed): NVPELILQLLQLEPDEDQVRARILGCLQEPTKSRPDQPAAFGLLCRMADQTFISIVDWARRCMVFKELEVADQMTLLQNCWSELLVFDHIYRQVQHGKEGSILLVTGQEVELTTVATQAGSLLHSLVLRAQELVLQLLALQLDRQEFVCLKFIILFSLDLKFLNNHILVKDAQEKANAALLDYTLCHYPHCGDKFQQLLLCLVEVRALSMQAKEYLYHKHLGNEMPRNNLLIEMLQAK

| SMILES | pIC50 (SF1-LBD) | pIC50 (CYP11A1) | pIC50 (CYP17A1) | pIC50 (CYP21A2) | pIC50 (STAR) |
| --- | --- | --- | --- | --- | --- |
| COc1ccc([C@]2(CCN(Cc3ccc(O[C@H]4CC[C@H](CS(C)(=N)=O)CC4)cc3)C(=O)C(C)(C)C(F)F)CCOC(C)(C)C2)cc1 (single isomer, unassigned) [Example U11, 3,3-Difluoro-N-{2-[(4R)-4-(4-methoxyphenyl)-2,2-dimethyltetrahydro-2H-pyran-4-yl]ethyl}-2,2-dimethyl-N-{4-[(trans-4-{[(R) or (S)—S-methylsulfonimidoyl]methyl}cyclohexyl)oxy]benzyl}propanamide] | 7.68 | 8.00 | 6.85 | 7.62 | 7.27 |
| CC1(C)CC(CCN(Cc2ccc(O[C@H]3CC[C@H](C(=O)O)CC3)cc2)C(=O)C(C)(C)C)(c2ccc(Cl)cc2)CCO1 (stereo partly drawn) [Example A6, Trans-4-(4-{[{2-[4-(4-chlorophenyl)-2,2-dimethyltetrahydro-2H-pyran-4-yl]ethyl)(2,2-dimethylpropanoyl)amino]methyl}phenoxy)cyclohexanecarboxylic acid] | 7.72 | 6.99 | 6.55 | 6.85 | 6.80 |
| CC1(C)CC(CCN(Cc2ccc(O[C@H]3CC[C@H](C(=O)O)CC3)cc2)C(=O)C(C)(C)C)(c2ccc(OC(F)(F)F)cc2)CCO1 (stereo partly drawn) [Example B5, Trans-4-(4-{[(2,2-dimethylpropanoyl) (2-{2,2-dimethyl-4-[4-(trifluoromethoxy)phenyl]tetrahydro-2H-pyran-4-yl}ethyl)amino]methyl}phenoxy)cyclohexanecarboxylic acid] | 7.70 | 8.00 | 7.25 | 7.77 | 7.62 |
| COc1ccc(C2(CCN(Cc3ccc(O[C@H]4CC[C@H](CC(=O)O)CC4)c(Cl)c3)C(=O)C(C)(C)C)CCOC(C)(C)C2)cc1 (stereo partly drawn) [Example C8, [Trans-4-(2-chloro-4-{[(2,2-dimethylpropanoyl) {2-[4-(4-methoxyphenyl)-2,2-dimethyltetrahydro-2H-pyran-4-yl]ethyl}amino]methyl}phenoxy)cyclohexyl]acetic acid] | > 7.80 | 8.11 | 7.15 | 7.89 | 7.59 |
| COc1ccc(C2(CCN(Cc3ccc(O[C@H]4CC[C@H](C(=O)O)CC4)cc3)C(=O)C(C)(C)C)CCOC(C)(C)C2)cc1 (stereo partly drawn) [Example D3, Trans-4-(4-{[(2,2-dimethylpropanoyl){2-[4-(4-methoxyphenyl)-2,2-dimethyltetrahydro-2H-pyran-4-yl]ethyl}amino]methyl}phenoxy)cyclohexanecarboxylic acid] | 7.54 | 7.28 | 6.84 | 7.11 | 7.12 |
| COc1ccc([C@]2(CCN(Cc3ccc(O[C@H]4CC[C@H](C(=O)O)CC4)cc3)C(=O)C(C)(C)C)CCOC(C)(C)C2)cc1 [Example E2, Trans-4-(4-{[(2,2-dimethylpropanoyl) {2-[(4R)-4-(4-methoxyphenyl)-2,2-dimethyltetrahydro-2H-pyran-4-yl]ethyl)amino]methyl}phenoxy)cyclohexanecarboxylic acid] | 7.72 | 7.77 | 6.72 | 7.48 | 7.19 |
| CC(C)Oc1ccc(C2(CCN(Cc3ccc(O[C@H]4CC[C@H](C(=O)O)CC4)cc3)C(=O)C(C)(C)C)CCOC(C)(C)C2)cc1 (stereo partly drawn) [Example F4, Trans-4-(4-{[(2,2-dimethylpropanoyl) (2-{2,2-dimethyl-4-[4-(propan-2-yloxy)phenyl]tetrahydro-2H-pyran-4-yl}ethyl)amino]methyl}phenoxy)cyclohexanecarboxylic acid] | 7.51 | 7.85 | 6.78 | 7.64 | 7.16 |
| CC1(C)CC(CCN(Cc2ccc(O[C@H]3CC[C@H](C(=O)O)CC3)cc2)C(=O)C(C)(C)C)(c2ccc(N3CCCC3)cc2)CCO1 (stereo partly drawn) [Example G3, Trans-4-(4-{[(2,2-dimethylpropanoyl) (2-{2,2-dimethyl-4-[4-(pyrrolidin-1-yl)phenyl]tetrahydro-2H-pyran-4-yl}ethyl)amino]methyl}phenoxy)cyclohexanecarboxylic acid] | 7.27 | 7.49 | 7.14 | 7.38 | 7.46 |
| COc1ccc(C2(CCN(Cc3ccc(O[C@H]4CC[C@H](C(=O)NS(=O)(=O)N(C)C)CC4)cc3)C(=O)C(C)(C)C)CCOC(C)(C)C2)cc1 (stereo partly drawn) [Example H1, Trans-4-(4-{[(2,2-dimethylpropanoyl) {2-[4-(4-methoxyphenyl)-2,2-dimethyltetrahydro-2H-pyran-4-yl]ethyl}amino]methyl}phenoxy)-N-(dimethylsulfamoyl)cyclohexanecarboxamide] | 7.49 | 7.60 | 7.10 | 7.41 | 7.43 |
| COc1ccc(C2(CCN(Cc3ccc(O[C@H]4CC[C@H](C(=O)O)CC4)cc3)c3ccccn3)CCOC(C)(C)C2)cc1 (stereo partly drawn) [Example I2, trans-4-(4-{[{2-[4-(4-Methoxyphenyl)-2,2-dimethyltetrahydro-2H-pyran-4-yl]ethyl}(pyridin-2-yl)amino]methyl}phenoxy)cyclohexanecarboxylic acid] | 7.33 | 7.54 | 6.93 | 7.28 | 7.26 |
| COc1ccc([C@]2(CCN(Cc3ccc(C4=CC[C@H](C(=O)O)CC4)c(F)c3)CC(C)(C)C(F)(F)F)CCOC(C)(C)C2)cc1 [Example V5, (4R)-2′-Fluoro-4′-{[{2-[(4R)-4-(4-methoxyphenyl)-2,2-dimethyltetrahydro-2H-pyran-4-yl]ethyl)(3,3,3-trifluoro-2,2-dimethylpropyl)amino]methyl}-2,3,4,5-tetrahydro[biphenyl]-4-carboxylic acid monohydrochloride] | – | 8.01 | 7.15 | 7.68 | 7.74 |
| COc1ccc([C@]2(CCN(Cc3ccc(C4=CC[C@H](CO)CC4)cc3)CC(C)(C)C(F)(F)F)CCOC(C)(C)C2)cc1 [Example W5, [(4R)-4′-{[{2-[(4R)-4-(4-Methoxyphenyl)-2,2-dimethyltetrahydro-2H-pyran-4-yl]ethyl)(3,3,3-trifluoro-2,2-dimethylpropyl)amino]methyl}-2,3,4,5-tetrahydro[biphenyl]-4-yl]methanol] | – | 7.05 | 6.43 | 6.86 | 6.88 |
| COc1ccc([C@]2(CCN(Cc3ccc(C4=CC[C@H](CN5CCN(C(=O)OC(C)(C)C)CC5)CC4)cc3)CC(C)(C)C(F)(F)F)CCOC(C)(C)C2)cc1 [Example X2, tert-Butyl 4-{[(4R)-4′-{[{2-[(4R)-4-(4-methoxyphenyl)-2,2-dimethyltetrahydro-2H-pyran-4-yl]ethyl)(3,3,3-trifluoro-2,2-dimethylpropyl)amino]methyl}-2,3,4,5-tetrahydro[biphenyl]-4-yl]methyl}piperazine-1-carboxylate] | – | 6.29 | 5.91 | 6.24 | 6.11 |
